Measurements taken from PubChem BioAssay (NCI).
“And” between values parts separate entries of the source, which are not always exact repeats. Identical values can stand only once.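 Results reflect a 48-hour exposure of cells in 96-well plates to compound at five concentrations. GI50 is the concentration that inhibits growth by half. TGI denotes the concentration required for complete inhibition of growth.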

How the values were obtained:
Assay in all cases: NCI anticancer screen, dose series, 48 h
NCI-H226 lung = tested on: NCI-H226 lung
NCI-H460 lung = tested on: NCI-H460 lung
HCC-2998 colon = tested on: HCC-2998 colon
HOP-62 NSCLC = tested on: HOP-62 NSCLC
OVCAR-3 ovarian = tested on: OVCAR-3 ovarian
A549 NSCLC = tested on: A549 NSCLC
T-47D breast = tested on: T-47D breast
SK-MEL-5 melanoma = tested on: SK-MEL-5 melanoma
MDA-MB-231 breast = tested on: MDA-MB-231 breast

Structure (SMILES)	GI50 (NCI-H226 lung)	TGI (NCI-H226 lung)	GI50 (NCI-H460 lung)	TGI (NCI-H460 lung)	GI50 (HCC-2998 colon)	TGI (HCC-2998 colon)	GI50 (HOP-62 NSCLC)	TGI (HOP-62 NSCLC)	GI50 (OVCAR-3 ovarian)	TGI (OVCAR-3 ovarian)	GI50 (A549 NSCLC)	TGI (A549 NSCLC)	GI50 (T-47D breast)	TGI (T-47D breast)	GI50 (SK-MEL-5 melanoma)	TGI (SK-MEL-5 melanoma)	GI50 (MDA-MB-231 breast)	TGI (MDA-MB-231 breast)
COc1ccc(C2CC(c3cc(OC)c(OC)c(OC)c3)=NO2)cc1OCCCCOc1cc2c(cc1OC)C(=O)N1CCC[C@H]1C=N2 (some centres not stated)	1.67 µM	3.44 µM	1.85 µM	4 µM	1.58 µM	3.04 µM	1.68 µM	3.43 µM	1.94 µM	3.96 µM	2.33 µM	5.68 µM	1.31 µM	4.11 µM	1.47 µM	2.79 µM	1.15 µM	2.61 µM
Cc1c2cc[n+](C)cc2c(C)c2c1sc1ccccc12		2.11 µM		6.02 µM		6.28 µM		1.76 µM		5.43 µM		3.46 µM		3.67 µM		4.56 µM		11.2 µM
CC(=O)N[C@@H](Cc1ccc(OP(=O)(O)O)cc1)C(=O)N[C@H]1CCC(=O)N2CCC[C@@H](C(=O)NCc3ccc(Cl)cc3)N2C1=O	> 25 µM	> 25 µM	> 25 µM	> 25 µM	> 25 µM	> 25 µM	> 25 µM	> 25 µM	> 25 µM	> 25 µM	> 25 µM	> 25 µM	> 25 µM	> 25 µM	> 25 µM	> 25 µM	> 25 µM	> 25 µM
N#Cc1c(-c2ccccc2)nc(SCC2CO2)nc1N1CCOCC1 (configuration not stated)	11.5 µM	> 100 µM	6.59 µM	> 100 µM	0.253 µM	18.2 µM	6.8 µM	> 86.8 µM	5.27 µM	> 69.2 µM	21 µM	> 100 µM	2.74 µM	16.4 µM	10.2 µM	> 100 µM	15.8 µM	> 100 µM
CCN1CCN(Cc2ccc(-c3cc4c(N[C@H](C)c5ccccc5)ncnc4[nH]3)cc2)CC1	3.03 µM and 7.73 µM	24.7 µM and > 10 µM	5.55 µM and 6.86 µM	23.3 µM and > 10 µM	7.63 µM and > 10 µM	22.3 µM and > 10 µM	3.52 µM and 3.53 µM	18.3 µM and > 10 µM	3.78 µM and 2.05 µM	20.9 µM and > 10 µM	1.71 µM and 3.08 µM	13.1 µM and > 10 µM	1.36 µM and 0.765 µM	19.2 µM and > 10 µM	1.76 µM and 1.72 µM	3.68 µM and 3.88 µM	2.08 µM and 2.88 µM	8.3 µM and > 10 µM
Clc1ccc(CSC(Cn2ccnc2)c2ccc(Cl)cc2Cl)cc1 (configuration not stated)	1.38 µM	2.84 µM	1.47 µM	2.78 µM	1.64 µM	3.12 µM	1.41 µM	2.73 µM	1.54 µM	2.87 µM	1.42 µM	3.13 µM	0.999 µM	2.76 µM	1.61 µM	2.96 µM	1.51 µM	2.98 µM
NCCNc1c2c(c(NCCN)c3c(CO)c[nH]c13)C(=O)c1ccccc1C2=O	17.9 µM	91.6 µM	25.7 µM	> 100 µM	7.14 µM	52.3 µM	4.22 µM	> 100 µM	1.14 µM	30.7 µM	> 100 µM	> 100 µM	7.59 µM	> 100 µM	19.9 µM	69.3 µM	15.5 µM	51.4 µM
